Experiments:
[1] = target: T1, recombinant human SHP2 protein (Homo sapiens, UniProt Q06124); assay: Inhibition type of SHP2 (double reciprocal plot, pNPP); format: biochemical; details: 4o 0, 0.5, 1, 2 µM; various pNPP concentrations
T1 sequence (Q06124 1-593): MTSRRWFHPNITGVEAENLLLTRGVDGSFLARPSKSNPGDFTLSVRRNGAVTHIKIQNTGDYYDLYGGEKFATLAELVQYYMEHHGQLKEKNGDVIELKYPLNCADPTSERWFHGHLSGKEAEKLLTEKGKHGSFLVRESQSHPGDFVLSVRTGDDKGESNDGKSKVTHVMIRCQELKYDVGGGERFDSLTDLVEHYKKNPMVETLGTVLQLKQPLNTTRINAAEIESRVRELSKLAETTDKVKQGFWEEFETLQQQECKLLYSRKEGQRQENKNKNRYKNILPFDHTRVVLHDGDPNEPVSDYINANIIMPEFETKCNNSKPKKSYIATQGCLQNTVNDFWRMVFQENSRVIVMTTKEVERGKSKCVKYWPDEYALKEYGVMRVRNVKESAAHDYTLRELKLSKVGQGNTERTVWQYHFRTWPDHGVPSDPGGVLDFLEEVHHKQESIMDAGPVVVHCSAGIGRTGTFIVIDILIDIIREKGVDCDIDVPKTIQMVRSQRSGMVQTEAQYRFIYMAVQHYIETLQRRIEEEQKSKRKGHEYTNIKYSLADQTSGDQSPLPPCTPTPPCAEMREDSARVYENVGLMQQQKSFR
Method: Inhibition kinetic studies were performed with various concentrations of pNPP in the absence or presence of inhibitors. The experimental results were analyzed using double reciprocal plotting to evaluate the type of inhibition.
The experimental process was similar to the SHP2 inhibition assay. In the assay, the initial rates at a series of pNPP concentrations were determined at various fixed inhibitor concentrations of 4o (0 µM, 0.5 µM, 1 µM and 2 µM) as described above. The values of 1/[S] and 1/[V] were obtained from the substrate concentration and initial reaction rate, and were plotted on the x-axis and y-axis, respectively. The inhibition type of SHP2 was determined according to the intersection characteristics of the obtained approximate line.

[2] = tested on: HCT116 cells; assay: Cell viability assay (SRB); format: cell-based, human
Text: Human colon cancer cell line HCT116, hepatoma cell lines HepG2 and BEL-7402, lung adenocarcinoma cell lines NCI-H1975 and 95-D, pancreatic cancer cell line Panc-1, breast cancer cell line MDA-MB-231, NSCLC cell line NCI-H1299, ovarian cancer cell line SK-OV-3, leukemia cell line K562, glioma cell line U87, colon epithelial cell line NCM460 and umbilical vein endothelial cell line HUVEC were purchased from the Institute of Biochemistry and Cell Biology, Chinese Academy of Sciences (Shanghai, China). HCT116 cell line was cultured in McCoy’s 5A medium (Hyclone, Logan, UT, USA). HepG2, 95-D, Panc-1, MDA-MB-231, BEL-7402, SK-OV-3, U87 and NCM460 cell lines were cultured in DMEM-High glucose medium (Hyclone, Logan, UT, USA). NCI-H1975, NCI-H1299 and HUVEC cell lines were cultured in RPMI 1640 medium (Hyclone, Logan, UT, USA). K562 cell line was cultured in IMDM medium (Hyclone, Logan, UT, USA). […]
The inhibition rate of cell viability was detected by 3-(4,5-dimethyl-2-thiazolyl)-2,5-diphenyl-2-H-tetrazolium bromide (MTT, Solarbio, Beijing, China) or Sulforhodamine B (SRB, Sigma-Aldrich, St. Louis, MO, USA) assay. […] The absorbance at 570 nm was measured in a multimode reader (Berthold Technologies, Germany). […] Finally, Tris–HCl solution was added, and the absorbance at 515 nm was detected in a multimode reader (Berthold Technologies, Germany).

[3] = tested on: HCT116 cells; assay: Colony formation assay; format: cell-based, human; details: 4o 0.625, 1.25 and 2.5 μM, 8 days
Method: HCT116 cells were seeded in 6-well plates at a density of 500 cells per well. After 24 h, cells were treated with different concentrations of 4o for 8 days. Subsequently, the culture medium was removed and the cells were fixed with methanol for 3 min, and stained with crystal violet (Solarbio, Beijing, China) for 15 min. Finally, colonies were counted and photographed.

CCOc1ccc(Oc2ccc(C3=NN(C4=NC(=O)CS4)C(c4cc(O)c(O)c(Br)c4Br)C3)cc2)cc1 (stereo not shown) [Compound 4o, 2-(5-(2,3-dibromo-4,5-dihydroxyphenyl)-3-(4-(4-ethoxyphenoxy)phenyl)-4,5-dihydro-1H-pyrazol-1-yl)thiazol-4(5H)-one]
Inhibition type of SHP2 [1]: competitive SHP2 inhibitor
Growth inhibition of HCT116 cells ([2]; 24, 48 and 72 h): time- and dose-dependent manner
IC50 ([2]; Homo sapiens, HCT-116, HCT116, 72 h): 2.64 ± 0.17 µM
Colony formation of HCT116 cells [3]: significantly inhibited the colony formation
